Assay results taken from the CheMixHub viscosity set.
“And” between values parts separate entries of the source, which are not always exact repeats. Equal values may be shown once.

Assay: xn = mol fraction of the nth substance listed

Cc1cccc(O)c1 + C[N+](C)(C)CCO.[Cl-]
298.15 K, 101.33 kPa
Settings	viscosity
x1 = 0.7	138.1 mPa·s
x1 = 0.8	74.18 mPa·s and 56.16 mPa·s and 49.24 mPa·s
x1 = 0.9	39.12 mPa·s

C[Si]1(C)O[Si](C)(C)O[Si](C)(C)O[Si](C)(C)O[Si](C)(C)O[Si](C)(C)O1 + C[Si](C)(C)O[Si](C)(C)O[Si](C)(C)O[Si](C)(C)C
Settings	viscosity [mPa·s]
298.15 K, 101 kPa, x2 = 0.457	3.47

C[N+](=O)[O-] + Cc1ccc(C)cc1
293.15 K, 101.33 kPa
Settings	viscosity [mPa·s]
x1 = 0.1151	0.632
x1 = 0.2724	0.628
x1 = 0.4256	0.626
x1 = 0.481	0.625
x1 = 0.6051	0.625
x1 = 0.6915	0.626
x1 = 0.794	0.627
x1 = 0.8837	0.632

C[N+](=O)[O-] + Cc1ccccc1
298.15 K, 101 kPa
Settings	viscosity [mPa·s]
x1 = 0.1803	0.5448
x1 = 0.3318	0.5368
x1 = 0.4595	0.5331
x1 = 0.5699	0.534
x1 = 0.665	0.542
x1 = 0.7483	0.5534
x1 = 0.8226	0.5683
x1 = 0.888	0.5861
x1 = 0.9472	0.6066

Cc1cccc(O)c1 + Cc1ccccc1
308.15 K, 101 kPa
Settings	viscosity [mPa·s]
x1 = 0.0892	0.5693
x1 = 0.198	0.7009
x1 = 0.3227	0.9138
x1 = 0.4371	1.215
x1 = 0.5644	1.71
x1 = 0.6801	2.44
x1 = 0.7905	3.416
x1 = 0.8866	4.871
x1 = 0.9596	6.414

CCCCC(CC)COP(=O)(O)OCC(CC)CCCC (configuration not stated) + Cc1ccccc1C
viscosity [mPa·s], 101 kPa
Settings	x1 = 0.1	x1 = 0.2	x1 = 0.398	x1 = 0.606	x1 = 0.796	x1 = 0.9
303.15 K	1.039	2.217	8.93	29.43	77.84	124.5
308.15 K	0.981	2.056	7.798	24.38	61.89	96.93
313.15 K	0.915	1.88	6.923	20.18	48.95	76.04
318.15 K	0.867	1.743	5.965	18.03	41.55	63.57

Cc1cccc(O)c1 + Cc1ccccc1N
298.15 K, 101 kPa
Settings	viscosity [mPa·s]
x1 = 0.33	8.06
x1 = 0.496	11.21
x1 = 0.662	13.84
x1 = 0.751	13.76

CCC1(C)OC1C#N (configuration not stated) + ClC(Cl)(Cl)Cl
viscosity [mPa·s], 101 kPa
Settings	293.15 K	298.15 K	303.15 K	313.15 K	323.15 K
x1 = 0.0076	0.977	0.906	0.875	0.75	0.646
x1 = 0.008	0.983	0.938	0.873	0.776	0.698

CCCCOCCOCCOCCO + ClC(Cl)=C(Cl)Cl
298.15 K, 101.33 kPa
Settings	viscosity [mPa·s]
x2 = 0.0067	0.864
x2 = 0.0173	0.895
x2 = 0.0345	0.95
x2 = 0.0476	0.995
x2 = 0.06	1.04
x2 = 0.0815	1.124
x2 = 0.1063	1.227
x2 = 0.1471	1.408
x2 = 0.184	1.601
x2 = 0.2264	1.828
x2 = 0.2617	2.046
x2 = 0.3067	2.351
x2 = 0.348	2.66
x2 = 0.377	2.889
x2 = 0.415	3.192
x2 = 0.4588	3.55
x2 = 0.491	3.816
x2 = 0.5348	4.198
x2 = 0.576	4.576
x2 = 0.6201	4.978
x2 = 0.6577	5.357
x2 = 0.7089	5.881
x2 = 0.7558	6.354
x2 = 0.8037	6.872
x2 = 0.8566	7.45
x2 = 0.9013	7.964
x2 = 0.9283	8.26
x2 = 0.9521	8.528
x2 = 0.9738	8.793

CCCCOCCOCCOCCO + ClC=C(Cl)Cl
298.15 K, 101.33 kPa
Settings	viscosity [mPa·s]
x1 = 0.008	0.55
x1 = 0.0207	0.583
x1 = 0.0326	0.62
x1 = 0.0484	0.671
x1 = 0.0692	0.742
x1 = 0.0868	0.809
x1 = 0.1122	0.913
x1 = 0.1472	1.064
x1 = 0.1817	1.242
x1 = 0.2132	1.421
x1 = 0.2487	1.641
x1 = 0.2772	1.839
x1 = 0.3104	2.088
x1 = 0.3418	2.329
x1 = 0.3841	2.663
x1 = 0.4202	2.968
x1 = 0.4555	3.288
x1 = 0.4882	3.585
x1 = 0.5244	3.929
x1 = 0.5826	4.489
x1 = 0.6409	5.1
x1 = 0.6866	5.591
x1 = 0.7428	6.2
x1 = 0.8128	6.968
x1 = 0.8883	7.84
x1 = 0.9261	8.238
x1 = 0.967	8.732
x2 = 0.0136	8.939

CCCCC(CC)COP(=O)(O)OCC(CC)CCCC (configuration not stated) + Clc1ccccc1
viscosity [mPa·s], 101 kPa
Settings	x1 = 0.0374	x1 = 0.0804	x1 = 0.1303	x1 = 0.1888	x1 = 0.2587	x1 = 0.3436	x1 = 0.4481	x1 = 0.5826	x1 = 0.7584
303.15 K	0.8898	1.127	1.45	1.903	2.556	3.531	5.039	7.539	11.9
313.15 K	0.766	0.9413	1.176	1.498	1.953	2.619	3.629	5.271	8.078
323.15 K	0.6693	0.7965	0.9633	1.187	1.497	1.939	2.595	3.637	5.374

CCCC[n+]1cc[nH]c1.O=S(=O)([N-]S(=O)(=O)C(F)(F)F)C(F)(F)F + N
Settings	viscosity [mPa·s]
313.2 K, 101.33 kPa, x2 = 0.7076	9.866

Cc1cccc(O)c1 + Nc1ccccc1
298.15 K, 101 kPa
Settings	viscosity [mPa·s]
x1 = 0.3	6.799
x1 = 0.374	8.194
x1 = 0.461	9.622
x1 = 0.549	11.12
x1 = 0.631	12.2
x1 = 0.778	12.31

[Br-].[Br-].[Br-].[Sb+3] + Nc1ccccc1
323.15 K, 101 kPa
Settings	viscosity [mPa·s]
x1 = 0.1	6.997
x1 = 0.25	182.4
x1 = 0.333	2175
x1 = 0.4	7012
x1 = 0.45	20680
x1 = 0.47	23030
x1 = 0.49	24420
x1 = 0.5	24690
x1 = 0.51	20780
x1 = 0.53	16040
x1 = 0.55	7888
x1 = 0.6	3022
x1 = 0.75	272.9

CCCCOCCOCCOCCO + O
viscosity [mPa·s], 101 kPa
Settings	293.15 K	303.15 K	313.15 K	323.15 K
x1 = 0.009612	1.536	1.175	0.9391	0.7657
x1 = 0.02136	2.342	1.741	1.356	1.094
x1 = 0.03602	3.496	2.526	1.935	1.519
x1 = 0.05509	5.103	3.614	2.685	2.137
x1 = 0.08023	7.018	4.832	3.562	2.692
x1 = 0.1156	9.156	6.189	4.476	3.293
x1 = 0.1685	11.21	7.424	5.289	3.913
x1 = 0.2571	12.63	8.311	5.912	4.406
x1 = 0.3308	12.68	8.439	6.038	4.477
x1 = 0.4398	12.35	8.238	5.926	4.406
x1 = 0.5322	11.78	7.929	5.747	4.329
x1 = 0.5991	11.36	7.685	5.612	4.257
x1 = 0.7291	10.51	7.271	5.407	4.147
x1 = 0.8068	10.13	7.083	5.264	4.088
x1 = 0.8905	9.778	6.856	5.143	3.936
